26 compounds from US12459914B2, “Compounds and compositions for the treatment of tumors” (FONDAZIONE ISTITUTO ITALIANO DI TECNOLOGIA, priority 2019, dated 2025) can be followed below.

By EC50 is commonly meant the concentration that produces a half-maximal response.

Molecules are shown by their SMILES. Some results are limits rather than exact numbers.

The test system of the first test is BxPC-3 cells. The test can be described thus: Cell viability assay (CellTiter Glo). It is filed as cell-based. The conditions noted are these: Homo sapiens, 72 h. On the procedure:
BxPC-3 cells were grown in RPMI 1640 containing 10% FBS, 100 U/ml penicillin/streptomycin, 2 mM glutamine. All media and supplements were from Sigma-Aldrich. Cultures were routinely tested for Mycoplasma contamination. Treatments (Olaparib and BRCA2-Rad51 disruptors) were administered in culture medium supplemented with 0.6% DMSO. The same amount of DMSO was added to the control, untreated cultures.
Cell viability was assessed by CellTiter Glo, Luminescent Cell Viability Assay. Briefly, BxPC-3 cells (1×10^4/well) were plated in white 96-well plates with clear bottom and treated for 72 h with olaparib (10 μM) or with the BRCA2-Rad51 disruptors, given alone or in combination. After treatments, the plate was allowed to equilibrate at room temperature for 30 min and the CellTiter-Glo reactive was directly added to each well. The plate was kept on a shaker for 2 min to induce cell lysis and its luminescence was measured by using a Fluoroskan Ascent FL reader (Labsystems) using manufacturer's instructions.
For orientation: ATP-based viability assays read luminescence as a measure of living cells.
Consider `O=C(O)CCC(=O)N1N=C(c2c(-c3ccccc3)c3cc(Cl)ccc3[nH]c2=O)CC1c1ccc(C(F)(F)F)cc1` (stereo not drawn) [d.14, 4-[5-(6-chloro-2-oxo-4-phenyl-1H-quinolin-3-yl)-3-[4-(trifluoromethyl)phenyl]-3,4-dihydropyrazol-2-yl]-4-oxo-butanoic acid], for which the 50% effective concentration (EC50) is 50 µM. On the same count and under the same terms, the same measure for `CC(=O)N1N=C(c2c(-c3ccccc3)c3cc(Cl)ccc3[nH]c2=O)CC1c1ccc(F)cc1` (stereo not drawn) [d.2, 3-[2-acetyl-3-(4-fluorophenyl)-3,4-dihydropyrazol-5-yl]-6-chloro-4-phenyl-1H-quinolin-2-one]: 37 µM; for `O=C(O)CCC(=O)N1N=C(c2c(Cc3ccccc3)c3cc(Cl)ccc3[nH]c2=O)CC1c1ccc(Br)cc1` (stereo not drawn) [d.58, 4-[5-(4-benzyl-6-chloro-2-oxo-1H-quinolin-3-yl)-3-(4-bromophenyl)-3,4-dihydropyrazol-2-yl]-4-oxo-butanoic acid]: 23.6 µM. Still for that read-out and setting: the same measure for `O=C(O)CCC(=O)N1N=C(c2c(-c3ccccc3)c3cc(Cl)ccc3[nH]c2=O)CC1c1ccc(Cl)cc1` (stereo not drawn) [d.5, 4-[5-(6-chloro-2-oxo-4-phenyl-1H-quinolin-3-yl)-3-(4-chlorophenyl)-3,4-dihydropyrazol-2-yl]-4-oxo-butanoic acid]: over 50 µM; for `CCC(=O)N1N=C(c2c(-c3ccccc3)c3cc(Cl)ccc3[nH]c2=O)CC1c1ccc(Cl)cc1` (stereo not drawn) [d.7, 6-chloro-3-[3-(4-chlorophenyl)-2-propanoyl-3,4-dihydropyrazol-5-yl]-4-phenyl-1H-quinolin-2-one]: 20 µM; for `COc1ccc(-c2ccc(C3CC(c4c(-c5ccccc5)c5cc(Cl)ccc5[nH]c4=O)=NN3C(=O)CCC(=O)O)cc2)cc1` (stereo not drawn) [d.41, 4-[5-(6-chloro-2-oxo-4-phenyl-1H-quinolin-3-yl)-3-[4-(4-methoxyphenyl)phenyl]-3,4-dihydropyrazol-2-yl]-4-oxo-butanoic acid]: 40.6 µM.

`COc1ccc(C2CC(c3c(CCc4ccccc4)c4cc(Cl)ccc4[nH]c3=O)=NN2C(=O)CCC(=O)O)cc1` (stereo not drawn) [d.105, 4-[5-[6-chloro-2-oxo-4-(2-phenylethyl)-1H-quinolin-3-yl]-3-(4-methoxyphenyl)-3,4-dihydropyrazol-2-yl]-4-oxo-butanoic acid]: the EC50 came out at 29.6 µM. Same read-out and setting: the value for `CCn1ncc2cc(C3CC(c4c(-c5ccccc5)c5cc(Cl)ccc5[nH]c4=O)=NN3C(C)=O)ccc21` (stereo not drawn) [d.32, 3-[2-acetyl-3-(1-ethylindazol-5-yl)-3,4-dihydropyrazol-5-yl]-6-chloro-4-phenyl-1H-quinolin-2-one] was 27 µM; that for `CC(=O)N1N=C(c2c(-c3ccccc3)c3cc(Cl)ccc3[nH]c2=O)CC1c1ccc(Cl)cc1` (stereo not drawn) [d.6, 3-[2-acetyl-3-(4-chlorophenyl)-3,4-dihydropyrazol-5-yl]-6-chloro-4-phenyl-1H-quinolin-2-one] was 20 µM. Same read-out and setting: the value for `CC(=O)N1N=C(c2c(-c3ccccc3)c3cc(Cl)ccc3[nH]c2=O)CC1c1ccc(C)cc1` (stereo not drawn) [d.49, 3-[2-acetyl-3-(p-tolyl)-3,4-dihydropyrazol-5-yl]-6-chloro-4-phenyl-1H-quinolin-2-one] was 15.2 µM; that for `COc1ccc(C2CC(c3c(Cc4ccccc4)c4cc(Cl)ccc4[nH]c3=O)=NN2C(C)=O)cc1` (stereo not drawn) [d.52, 3-[2-acetyl-3-(4-methoxyphenyl)-3,4-dihydropyrazol-5-yl]-4-benzyl-6-chloro-1H-quinolin-2-one] was 13.7 µM; that for `O=C(O)CCC(=O)N1N=C(c2c(Cc3ccccc3)c3cc(Cl)ccc3[nH]c2=O)CC1c1ccc(F)cc1` (stereo not drawn) [d.50, 4-[5-(4-benzyl-6-chloro-2-oxo-1H-quinolin-3-yl)-3-(4-fluorophenyl)-3,4-dihydropyrazol-2-yl]-4-oxo-butanoic acid] was 15.2 µM. Same read-out and setting: the same measure for `Cn1ncc2cc(C3CC(c4c(Cc5ccccc5)c5cc(Cl)ccc5[nH]c4=O)=NN3C(=O)CCC(=O)O)ccc21` (stereo not drawn) [d.73, 4-[5-(4-benzyl-6-chloro-2-oxo-1H-quinolin-3-yl)-3-(1-methylindazol-5-yl)-3,4-dihydropyrazol-2-yl]-4-oxo-butanoic acid]: 81.8 µM. As to `O=C(O)CCC(=O)N1N=C(c2c(-c3ccccc3)c3cc(Cl)ccc3[nH]c2=O)CC1c1ccc(-c2ccc(Br)cc2)cc1` (stereo not drawn) [d.39, 4-[3-[4-(4-bromophenyl)phenyl]-5-(6-chloro-2-oxo-4-phenyl-1H-quinolin-3-yl)-3,4-dihydropyrazol-2-yl]-4-oxo-butanoic acid], the EC50 amounted to 43 µM.

In a further test the target is T1, BRC4/RAD51 interaction (Homo sapiens, UniProt Q06609).
T1 construct: purchased Creative Biomart (Rad51); Life Technologies (BRC4 peptide)
T1 sequence (Q06609 1-339): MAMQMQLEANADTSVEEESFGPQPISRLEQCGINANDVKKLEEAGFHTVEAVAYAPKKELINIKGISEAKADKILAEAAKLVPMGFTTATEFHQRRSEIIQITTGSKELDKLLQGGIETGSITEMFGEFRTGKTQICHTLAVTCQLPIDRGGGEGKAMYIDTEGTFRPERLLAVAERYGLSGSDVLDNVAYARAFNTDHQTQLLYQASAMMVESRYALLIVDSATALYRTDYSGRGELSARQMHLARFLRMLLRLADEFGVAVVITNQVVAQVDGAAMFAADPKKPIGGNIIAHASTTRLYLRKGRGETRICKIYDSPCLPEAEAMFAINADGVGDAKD
Description: Competitive ELISA assay, disruption of BRC4/RAD51 interaction. The following applies: human Rad51, biotinylated BRC4 peptide. It is filed as binding. The protocol: A competitive ELISA screening assay using biotinylated BRC4 peptide to disrupt the BRC4/RAD51 interaction was performed by modifying the method described by Rajendra et al. (Nucleic Acids Res. 38 (2010) 82-96). BRC4-biotinylated peptide (N-term Biotin[…] from Life Technologies) was used to coat 384-well plates (Nunc). After washing with PBS containing 0.05% Tween-20 (PBST), and blocking with the solution BSA 1%/PBST, overnight hybridization with human Rad51 protein (NP_002866 Creative Biomart, NY) was performed. Test compounds were added in dose-response from […] in triplicate with constant DMSO 1%. Antibody raised against Rad51 (Millipore) and HRP-secondary antibody staining to develop the 3,30,5,50-tetramethyllbenzidine signal (Sigma) quenched with 1M HCl was used as the assay readout. Colorimetric measure was read on Victor5 (PerkinElmer) plate Reader. BRC4 and Rad51 were included in the assay as positive control. Results were analyzed using GraphPad Software.
Background: In an ELISA, binding on a coated surface is turned into a signal by an enzyme label.
Regarding `O=C(O)CCC(=O)N1N=C(c2c(-c3ccccc3)c3cc(Cl)ccc3[nH]c2=O)CC1c1ccc(C(F)(F)F)cc1` (stereo not drawn) [d.14, 4-[5-(6-chloro-2-oxo-4-phenyl-1H-quinolin-3-yl)-3-[4-(trifluoromethyl)phenyl]-3,4-dihydropyrazol-2-yl]-4-oxo-butanoic acid], the EC50 turned out to be 29 µM. For `COc1ccc(-c2ccc(C3CC(c4c(-c5ccccc5)c5cc(Cl)ccc5[nH]c4=O)=NN3C(C)=O)cc2)cc1` (stereo not drawn) [d.42, 3-[2-acetyl-3-[4-(4-methoxyphenyl)phenyl]-3,4-dihydropyrazol-5-yl]-6-chloro-4-phenyl-1H-quinolin-2-one], the midpoint of the response, the EC50, lay at 70 µM.

The compound `CCn1ncc2cc(-c3ccc(C4CC(c5c(-c6ccccc6)c6cc(Cl)ccc6[nH]c5=O)=NN4C(=O)CCC(=O)O)cc3)ccc21` (stereo not drawn) [d.45, 4-[5-(6-chloro-2-oxo-4-phenyl-1H-quinolin-3-yl)-3-[4-(1-ethylindazol-5-yl)phenyl]-3,4-dihydropyrazol-2-yl]-4-oxo-butanoic acid] yielded a 50% effective concentration (EC50) of 15 µM. Same read-out and setting: the value for `CCC(=O)N1N=C(c2c(Cc3ccccc3)c3cc(Cl)ccc3[nH]c2=O)CC1c1ccc(F)cc1` (stereo not drawn) [d.54, 4-benzyl-6-chloro-3-[3-(4-fluorophenyl)-2-propanoyl-3,4-dihydropyrazol-5-yl]-1H-quinolin-2-one] was 65 µM. On to `COc1ccc(-c2ccc(C3CC(c4c(Cc5ccccc5)c5cc(Cl)ccc5[nH]c4=O)=NN3C(C)=O)cc2)cc1` (stereo not drawn) [d.89, 3-[2-acetyl-3-[4-(4-methoxyphenyl)phenyl]-3,4-dihydropyrazol-5-yl]-4-benzyl-6-chloro-1H-quinolin-2-one], for which the concentration for a half-maximal effect (EC50) worked out at 105 µM. Same read-out and setting: the same measure for `COc1ccc(C2CC(c3c(Cc4ccccc4)c4cc(Cl)ccc4[nH]c3=O)=NN2C(=O)CCC(=O)O)cc1` (stereo not drawn) [d.61, 4-[5-(4-benzyl-6-chloro-2-oxo-1H-quinolin-3-yl)-3-(4-methoxyphenyl)-3,4-dihydropyrazol-2-yl]-4-oxo-butanoic acid]: over 100 µM. The same measure, in the same setting: the same measure for `O=C(O)CCC(=O)N1N=C(c2c(-c3ccccc3)c3cc(Cl)ccc3[nH]c2=O)CC1c1ccccn1` (stereo not drawn) [d.99, 4-(3-(6-chloro-2-oxo-4-phenyl-1,2-dihydroquinolin-3-yl)-5-(pyridin-2-yl)-4,5-dihydro-1H-pyrazol-1-yl)-4-oxobutanoic acid]: 190 µM. Same read-out and setting: the same measure for `CCC(=O)N1N=C(c2c(-c3ccccc3)c3cc(Cl)ccc3[nH]c2=O)CC1c1ccc(Br)cc1` (stereo not drawn) [d.10, 3-[3-(4-bromophenyl)-2-propanoyl-3,4-dihydropyrazol-5-yl]-6-chloro-4-phenyl-1H-quinolin-2-one]: 19 µM; for `CCCn1cc(-c2ccc(C3CC(c4c(-c5ccccc5)c5cc(Cl)ccc5[nH]c4=O)=NN3C(C)=O)cc2)cn1` (stereo not drawn) [d.44, 3-[2-acetyl-3-[4-(1-propylpyrazol-4-yl)phenyl]-3,4-dihydropyrazol-5-yl]-6-chloro-4-phenyl-1H-quinolin-2-one]: 46 µM; for `Cn1ccc2cc(C3CC(c4c(Cc5ccccc5)c5cc(Cl)ccc5[nH]c4=O)=NN3C(=O)CCC(=O)O)ccc21` (stereo not drawn) [d.69, 4-[5-(4-benzyl-6-chloro-2-oxo-1H-quinolin-3-yl)-3-(1-methylindol-5-yl)-3,4-dihydropyrazol-2-yl]-4-oxo-butanoic acid]: 10 µM.

The compound `CCC(=O)N1N=C(c2c(-c3ccccc3)c3cc(Cl)ccc3[nH]c2=O)CC1c1ccc(F)cc1` (stereo not drawn) [d.3, 6-chloro-3-[3-(4-fluorophenyl)-2-propanoyl-3,4-dihydropyrazol-5-yl]-4-phenyl-1H-quinolin-2-one] gave an EC50 of 34 µM.

Take `O=C(O)CCC(=O)N1N=C(c2c(Cc3ccccc3)c3cc(Cl)ccc3[nH]c2=O)CC1c1ccc(-c2ccc(F)cc2)cc1` (stereo not drawn) [d.83, 4-[5-(4-benzyl-6-chloro-2-oxo-1H-quinolin-3-yl)-3-[4-(4-fluorophenyl)phenyl]-3,4-dihydropyrazol-2-yl]-4-oxo-butanoic acid]: the concentration for a half-maximal effect (EC50) amounted to 12 µM. The same measure, in the same setting: the same measure for `O=C(O)CCC(=O)N1N=C(c2c(Cc3ccccc3)c3cc(Cl)ccc3[nH]c2=O)CC1c1cccnc1` (stereo not drawn) [d.100, 4-[5-(4-benzyl-6-chloro-2-oxo-1H-quinolin-3-yl)-3-(3-pyridyl)-3,4-dihydropyrazol-2-yl]-4-oxo-butanoic acid]: 15 µM.
